Measured values reported in article PMC12030627, “Radioiodinated Bicyclic RGD Peptide Derivatives for Enhanced Tumor Accumulation” (Pharmaceuticals, 2025).
Where two headings read alike, the source gives them in different places. Starred links: 1 amine or outer side, 2 acyl side, 3 side chain; linkers in the order of their positions; H or OH if unused. Positions of bridges follow the written chain, without caps; N, C: chain ends. Non-standard residues stand in square brackets, D forms with d. Residues, ends and D or L forms follow the SMILES beside them. *: point of attachment. Butanoyl(4-(4-I-phenyl)) = O=C(CCCc1ccc(I)cc1)*; TBMB = c1c(C[*:1])cc(C[*:3])cc1C[*:2]; Benzoyl(3-I) = O=C(c1cccc(I)c1)*; 4Abz = Nc1ccc(C(=O)O)cc1

Assay: Biodistribution in U-87 MG tumor-bearing mice
Assay type: in vivo, BALB/c nu-nu mice
Conditions: male, BALB/c nu-nu, mouse, iv, 37 kBq, total radioactivity, U-87 MG-bearing mice, mean ± SD, n = 3; for tissue uptake at 1 h / tissue uptake dose at 1 h: 1 h after i.v. administration; for tissue uptake at 2 h / tissue uptake dose at 2 h: 2 h after i.v. administration; for tissue uptake at 6 h / tissue uptake dose at 6 h: 6 h after i.v. administration; for tissue uptake at 5 min / tissue uptake dose at 5 min: 5 min after i.v. administration; for tissue uptake at 0.5 h / tissue uptake dose at 0.5 h: 30 min after i.v. administration
Protocol: Animal experiments were performed in compliance with institutional animal care regulations, with the study protocol approved by the Experimental Animal Committee of Osaka Medical and Pharmaceutical University (Approval Numbers: 21–76, 22–76, and 23–76). Four-week-old male BALB/c nu-nu mice (Japan SLC, Shizuoka, Japan) were housed under a 12 h light/12 h dark cycle with free access to food and water. Tumor-bearing mice were established by suspending U-87 MG cells (2 × 10^6 cells/mouse) in PBS(–) and subcutaneously injecting 100 μL of the suspension into the right hind leg. For co-implantation models, A549 cells (2 × 10^6 cells/mouse) were suspended in PBS(–) and inoculated (100 μL) into the left hind leg of the same mice already inoculated with U-87 MG cells. Mice with tumor size approximately 10 mm in diameter, 4–5 weeks after inoculation, were used for biodistribution studies. Animals in which either tumor was not viable were excluded from the experiment.
U-87 MG-bearing mice (n = 42, 8–9 weeks old; 22–27 g) were randomly assigned into groups and administered [^125I]bcRGDpal or [^125I]bcRGDiba via intravenous injection (37 kBq in 100 μL of PBS containing 0.1% Tween 80 (PBS-T80)). At 5 min, 30 min, 1 h, 2 h, 6 h, 12 h, or 24 h post-injection, the mice were euthanized (n = 3 per time point). The heart, kidneys, liver, brain, pancreas, spleen, lung, small intestine, large intestine, muscle, skin, stomach, bone, and tumors were excised. Each organ’s weight and radioactivity were measured by a NaI well-type scintillation counter, and the % ID/g was calculated. To investigate the correlation between integrin expression and radioactivity accumulation, biodistribution at 2 h after administration of [^125I]bcRGDpal or [^125I]bcRGDiba was assessed in A549 and U-87 MG co-implantation mice (n = 5) using the same procedure. Additionally, co-implantation mice were injected with [^125I]bcRGDdimer (37 kBq/100 μL PBS-T80) and euthanized at 30 min, 2 h, and 4 h post-injection (n = 4 per time point), and % ID/g values were calculated as described above. The minimum sample size needed for the biodistribution study in U-87 MG-bearing mice was calculated using G Power software version 3.1.9.7. The calculation was based on a two-tailed test, with an effect size of 3.9, a significance level (α) of 0.05, and a statistical power (1 − β) of 0.8. […] The minimum required sample size for the biodistribution study in A549 and U-87 MG co-implantation mice was also calculated to be four animals per group (effect size = 2.5, α = 0.05, 1 − β = 0.8). To guarantee objective results, the experiment was carried out in a blinded manner. Specifically, drug administration and radioactivity measurements were conducted by different investigators to eliminate potential bias.

[1] = liver, read-out: Radioactivity in liver
[2] = lung, read-out: Radioactivity in lung
[3] = muscle, read-out: Radioactivity in muscle
[4] = pancreas, read-out: Radioactivity in pancreas
[5] = small intestine, read-out: Radioactivity in small intestine
[6] = spleen, read-out: Radioactivity in spleen
[7] = stomach, read-out: Radioactivity in stomach
[8] = thyroid, read-out: Radioactivity in thyroid

With N=C(N)NCCC[C@@H]1NC(=O)[C@H]2CSCc3cc(cc(c3)CSC[C@H](C(N)=O)NC(=O)[C@H](CC(=O)O)NC(=O)CNC1=O)CSC[C@H](NC(=O)CNC(=O)[C@H](CO)NC(=O)c1ccc(NC(=O)CNC(=O)[C@H](CO)NC(=O)[C@@H]3CCCN3C(=O)[C@@H]3CCCN3C(=O)[C@@H]3CCCN3C(=O)[C@H](CCCCNC(=O)c3cccc(I)c3)NC(=O)CCCc3ccc(I)cc3)cc1)C(=O)N[C@@H](Cc1c[nH]cn1)C(=O)N1CCC[C@H]1C(=O)N[C@@H](CCC(N)=O)C(=O)N2 [[^125I]bcRGDiba] ({Butanoyl(4-(4-I-phenyl))}-K(Benzoyl(3-I))PPPSG[4Abz]SGCHPQ[dC]RGD[dC]-NH2; linker 10-14-18 via TBMB) the tissue uptake at 1 h [1] was 5.7 ± 0.7 %ID/g, the tissue uptake at 2 h [1] was 5.1 ± 0.4 %ID/g and the tissue uptake at 6 h [1] was 3.4 ± 0.4 %ID/g. It also gave a tissue uptake at 12 h (liver, 12 h after i.v. administration, read-out: Radioactivity in liver) of 1.4 ± 0.2 %ID/g, a tissue uptake at 24 h (liver, 24 h after i.v. administration, read-out: Radioactivity in liver) of 0.6 %ID/g and a tissue uptake at 5 min [2] of 10.7 ± 1.9 %ID/g. The tissue uptake at 0.5 h [2] was 9.4 ± 0.3 %ID/g, the tissue uptake at 1 h [2] was 8.2 ± 0.6 %ID/g and the tissue uptake at 2 h [2] was 7.5 ± 0.4 %ID/g. For the same compound, the tissue uptake at 6 h [2] was 5.3 ± 0.5 %ID/g, the tissue uptake at 12 h (lung, 12 h after i.v. administration, read-out: Radioactivity in lung) was 2.6 ± 0.3 %ID/g and the tissue uptake at 24 h (lung, 24 h after i.v. administration, read-out: Radioactivity in lung) was 1.2 ± 0.1 %ID/g. For the same compound, the tissue uptake at 5 min [3] was 1.4 ± 0.4 %ID/g, the tissue uptake at 0.5 h [3] was 1.5 ± 0.2 %ID/g and the tissue uptake at 1 h [3] was 1.5 ± 0.1 %ID/g. The tissue uptake at 2 h [3] was 1.5 ± 0.2 %ID/g, the tissue uptake at 6 h [3] was 1.2 ± 0.3 %ID/g and the tissue uptake at 12 h (muscle, 12 h after i.v. administration, read-out: Radioactivity in muscle) was 0.5 ± 0.1 %ID/g. For the same compound, the tissue uptake at 24 h (muscle, 24 h after i.v. administration, read-out: Radioactivity in muscle) was 0.3 %ID/g, the tissue uptake at 5 min [4] was 2.3 ± 0.4 %ID/g and the tissue uptake at 0.5 h [4] was 2 ± 0.2 %ID/g. It also gave a tissue uptake at 1 h [4] of 1.5 ± 0.2 %ID/g, a tissue uptake at 2 h [4] of 1.4 ± 0.2 %ID/g and a tissue uptake at 6 h [4] of 1 ± 0.2 %ID/g. It also gave a tissue uptake at 12 h (pancreas, 12 h after i.v. administration, read-out: Radioactivity in pancreas) of 0.5 ± 0.1 %ID/g, a tissue uptake at 24 h (pancreas, 24 h after i.v. administration, read-out: Radioactivity in pancreas) of 0.2 %ID/g and a tissue uptake at 5 min [5] of 2.3 ± 0.4 %ID/g. The tissue uptake at 0.5 h [5] was 3 ± 0.1 %ID/g, the tissue uptake at 1 h [5] was 4.8 ± 0.6 %ID/g and the tissue uptake at 2 h [5] was 4.9 ± 0.3 %ID/g. The tissue uptake at 6 h [5] was 5.6 ± 1.1 %ID/g, the tissue uptake at 12 h (small intestine, 12 h after i.v. administration, read-out: Radioactivity in small intestine) was 2.2 ± 0.5 %ID/g and the tissue uptake at 24 h (small intestine, 24 h after i.v. administration, read-out: Radioactivity in small intestine) was 0.9 ± 0.1 %ID/g. It also gave a tissue uptake at 5 min [6] of 2.9 ± 0.5 %ID/g, a tissue uptake at 0.5 h [6] of 3 ± 0.2 %ID/g and a tissue uptake at 1 h [6] of 2.5 ± 0.2 %ID/g. It also gave a tissue uptake at 2 h [6] of 2.3 ± 0.3 %ID/g, a tissue uptake at 6 h [6] of 1.7 ± 0.5 %ID/g and a tissue uptake at 12 h (spleen, 12 h after i.v. administration, read-out: Radioactivity in spleen) of 0.9 ± 0.1 %ID/g. For the same compound, the tissue uptake at 24 h (spleen, 24 h after i.v. administration, read-out: Radioactivity in spleen) was 0.4 %ID/g, the tissue uptake dose at 5 min [7] was 0.4 ± 0.1 %ID and the tissue uptake dose at 0.5 h [7] was 0.8 ± 0.2 %ID. For the same compound, the tissue uptake dose at 1 h [7] was 0.7 ± 0.1 %ID, the tissue uptake dose at 2 h [7] was 0.7 ± 0.3 %ID and the tissue uptake dose at 6 h [7] was 0.8 ± 0.2 %ID. For the same compound, the tissue uptake dose at 12 h (stomach, 12 h after i.v. administration) was 0.2 ± 0.1 %ID, the tissue uptake dose at 24 h (stomach, 24 h after i.v. administration) was 0.2 %ID and the tissue uptake dose at 5 min [8] was 0.1 %ID. For the same compound, the tissue uptake dose at 0.5 h [8] was 0.1 ± 0.1 %ID, the tissue uptake dose at 1 h [8] was 0.1 ± 0.1 %ID and the tissue uptake dose at 2 h [8] was 0.1 ± 0.1 %ID. For the same compound, the tissue uptake dose at 6 h [8] was 0.1 %ID.
